According to patent US20260132115A1, “SUBSTITUTED 3-FLUOROBENZENEPROPANOATE COMPOUND AND PREPARATION METHOD THEREFOR, PHARMACEUTICAL COMPOSITION THEREOF, AND USE THEREOF” (TIANJIN GUDUI BIO-PHARM CO., LTD., priority 2022, published 2026):
Read-outs that look alike come from different tables or passages of the source. Marks after values point to notes of the source that are not given here.

How the values were obtained:
U87 = test: Antitumor potency, MTT method, U87; format: cell-based; details: Homo sapiens, U-87 MG, 72 h incubation
Procedure: (§1) Experimental method: The antitumor potency was tested by the MTT method. Tumor cells at the logarithmic phase were collected. The concentration of the cell suspension was adjusted. 100 μL of the cell suspension was added to each well. Cell plating was carried out and the cell density was adjusted to 1000 to 10000/well (the marginal wells were filled with sterile PBS). The cells were incubated at 5% CO2 and 37° C. until the cells adhered to the wall (96-well flat-bottomed plate). Drugs of different concentration gradients were added, 100 μL per well. Four replicates were set up. Under the conditions of 5% CO2 and 37° C., the cells were incubated for 72 h and observed under an inverted microscope. The prepared MTT solution (5 mg/mL) was added to the 96-well plate, 20 μL per well, mixed well, and incubated for 4 h under the conditions of 37° C. and 5% CO2. Afterwards, the liquid in the plate was discarded. 150 μL of DMSO was added to each well and oscillated for 3 min on a microplate reader. The OD value (optical density) was detected at 490 nm.
(§2) The inhibition rate of the drug against the tumor cell growth was calculated according to the following formula: […]

U251 = test: Antitumor potency, MTT method, U251; format: cell-based; details: Homo sapiens, U-251, 72 h incubation
Procedure: as §1, §2

H460 = test: Antitumor potency, MTT method, H460; format: cell-based; details: Homo sapiens, NCI-H460, 72 h incubation
Procedure: as §1, §2

[1] = tested on: λ-Carrageenan-Induced Rat Toe Swelling; test: Anti-inflammatory effect on λ-carrageenan-induced rat toe swelling; format: in vivo, SD rats; details: 10 mg/kg intraperitoneal, 1 h before 1% λ-carrageenan; for inhibition in vivo at 10 mg/kg: Rattus norvegicus, ip
Procedure: Experimental method: Male SD rats weighing 150-160 g were randomly grouped, with 10 rats in each group. The rats were intraperitoneally injected with saline, the compounds of the present disclosure, and the control drug flurbiprofen or flurbiprofen axetil respectively, all of which were administered at a dose of 10 mg/kg and a dosing volume of 10 μL/g. At 1 h after administration, 100 μL of 1% λ-carrageenan was injected into the right hind toe of each rat to induce inflammation. Afterwards, the paw volume was measured every 1 h using a paw volume meter to calculate the swelling inhibition rate.

[2] = tested on: Dry Yeast-Induced Rat Fever Models; test: Antipyretic effect on dry yeast-induced fever in rats; format: in vivo, SD rats; details: rectal temperature, 10 mg/kg intraperitoneal, 20 min before 20% dry yeast s.c.
Procedure: Experimental method: Male SD rats, aged 4 weeks, were randomly grouped, with 10 rats in each group. […] The rats were intraperitoneally injected with saline, the compounds of the present disclosure or the control drug flurbiprofen respectively, all of which were administered at a dose of 10 mg/kg and a dosing volume of 10 μL/g. At 20 min after administration, 20% active dry yeast suspension was injected subcutaneously. After modeling, the rectal temperatures were measured at 4 h and 8 h.

Eca-109 = test: Antitumor potency, MTT method, Eca-109; format: cell-based; details: Homo sapiens, 72 h incubation
Procedure: as §1, §2

rats with CIA = test: Analgesic and anti-inflammatory effects on collagen-induced rheumatoid arthritis (CIA) in rats; format: in vivo, Lewis rats; details: for paw volume effect as compared to the flurbiprofen group: left hind limb, 14-day intervention, 10 mg/kg (FIG. 3); for MWT effect as compared to the flurbiprofen group: left lower limb, 13-day intervention, 10 mg/kg (FIG. 4)
Procedure: Experimental method: Female Lewis rats, aged 6-8 weeks, were randomly grouped, with 8 rats in each group. Under the ambient temperature of 20.5° C. to 24.5° C. and the humidity of 40% to 70%, the light period was 12-h bright and 12-h dark. Type II collagen was mixed with Freund's incomplete adjuvant (IFA) at a ratio of 1:1 and fully emulsified on ice before use. 100 μL of the mixed solution was injected intradermally at the part 2 to 3 cm from the base of the rat tail, and 50 μL of the mixed solution was injected into the bases of both hind limbs separately. The rats in the blank control group were injected with an equal volume of saline. IFA was used for re-immunization 7 days later. […] Rats with a total score of more than 2 on both hind limbs were selected and randomly divided into a model group, a flurbiprofen group, a compound 33 group, a compound 2 group, a compound 13 group, a compound 20 group, and a compound 35 group according to the body weight, score and paw volume, and furthermore a blank control group was set up, with 8 rats in each group. The dosing […] was […], and the dosing time was 14 days. A corresponding volume of solvent was administered in the model group and the blank control group.
Test indicators: body weight, arthritis score, hind limb paw volume, and mechanical foot threshold (MWT).
Standard for arthritis score: 0=normal; 1=erythema and slight swelling observed at the ankle joint; 2=erythema and slight swelling observed from the ankle joint to the metatarsal joint or the metacarpal joint; 3=erythema and moderate swelling observed from the ankle joint to the metatarsophalangeal joint or the metacarpal joint; 4=erythema and severe swelling observed from the ankle joint to the metatarsal joint; the total score of all (four) paws was calculated, and the sum of the arthritis indices was up to 16 per rat.

NUGC-4 = test: Antitumor potency, MTT method, NUGC-4; format: cell-based; details: Homo sapiens, 72 h incubation
Procedure: as §1, §2

MM.1S = test: Antitumor potency, MTT method, MM.1S; format: cell-based; details: Homo sapiens, MM1.S, 72 h incubation
Procedure: as §1, §2

[3] = In vivo pharmacokinetic assay in rats (gavage, plasma); details: female, Sprague Dawley, po, prototype drug in rat plasma, dose equimolar to 50 mg/kg flurbiprofen
Procedure: Experimental method: Adult female Sprague Dawley rats, aged 8-10 weeks and weighing 200±20 g, were randomly grouped, with 3 rats in each group. Rats in each of the groups were administered by gavage at a dose of 50 mg/kg of flurbiprofen and an equimolar dose of other example compounds to 50 mg/kg of flurbiprofen, respectively. After gavage administration, blood was collected at 0.0833 […], and 24 h into sodium heparin anticoagulant tubes, respectively. The blood was collected by the following method: 250 μL of blood were collected from the orbital venous plexuses of the rats. After blood collection, the blood samples were centrifuged at 12000 rpm in a centrifuge for 5 min. All plasma was aspirated into a 1.5-mL centrifuge tube, and the plasma was stored in a refrigerator at -80° C. The pharmacokinetic parameters were determined by the external standard curve method. Sample processing: after the cryopreserved samples were removed and restored to room temperature, the samples were vortexed evenly and then diluted two folds with methanol; the sample solution was diluted 5 folds by adding a mixed extractant of 0.5% formic acid-containing acetonitrile:methanol=7:3, and subjected to vortex oscillation for 1 min. Subsequently, the resultant was centrifuged at 4° C. and 12000 rpm for 10 min, and then 5 μL of the supernatant was measured for assay. The pharmacokinetic parameters in the Examples were calculated using the Winnonlin software.

[4] = 6 h, read-out: Toe Swelling Inhibition Rate at 6 h
[5] = 24 h, read-out: Toe Swelling Inhibition Rate at 24 h

| Compound | inhibition in vivo at 10 mg/kg [1, 4] | inhibition in vivo at 10 mg/kg [1, 5] | Temp. at 4 h After Dosing [2] | Temp. at 8 h After Dosing [2] | further results |
| --- | --- | --- | --- | --- | --- |
| CC(C(=O)OCOC(=O)N1CCC(O)CC1)c1ccc(-c2ccccc2)c(F)c1 (stereo not shown) [Compound 20] | 52.7% | 45% | 37.09 ± 0.25 °C | 37.27 ± 0.26 °C | IC50 (U87): 54.6 µM; IC50 (U251): 5.84 µM; IC50 (H460): 35.9 µM; IC50 (Eca-109): 33.2 µM; paw volume effect as compared to the flurbiprofen group (rats with CIA): better effects; MWT effect as compared to the flurbiprofen group (rats with CIA): slightly better or better effects; IC50 (NUGC-4): 50.4 µM; IC50 (MM.1S): 42.8 µM |
| CC(C(=O)O)c1ccc(-c2ccccc2)c(F)c1 (stereo not shown) [Flurbiprofen, reference compound] | 35.5% | 29.9% | 37.49 ± 0.43 °C | 37.67 ± 0.39 °C | IC50 (U87): > 100 µM; IC50 (U251): 34.1 µM; IC50 (H460): > 100 µM; IC50 (Eca-109): 85.5 µM; IC50 (NUGC-4): > 100 µM; IC50 (MM.1S): > 100 µM |
| CC(C(=O)OCOC(=O)N(CCO)CCO)c1ccc(-c2ccccc2)c(F)c1 (stereo not shown) [Compound 25] | – | – | – | – | AUC [3]: 63000 ± 11800 ng·h/mL; Cmax [3]: 3860 ± 178 ng/mL; half-life ([3]; read-out: Prototype Drug t1/2 (converted)): 8.1 ± 4.42 h |
| CC(C(=O)OCc1ccccc1O)c1ccc(-c2ccccc2)c(F)c1 (stereo not shown) [Compound 48] | 44.1% | 33.9% | 37.11 ± 0.23 °C | 37.21 ± 0.25 °C | – |
| CC(C(=O)OCOC(=O)c1ccc(O)cc1)c1ccc(-c2ccccc2)c(F)c1 (stereo not shown) [Compound 35] | 54.6% | 49.8% | 37.15 ± 0.21 °C | 37.29 ± 0.30 °C | IC50 (U87): 60.3 µM; IC50 (U251): 7.33 µM; IC50 (H460): 32.6 µM; IC50 (Eca-109): 29.6 µM; paw volume effect as compared to the flurbiprofen group (rats with CIA): better effects; MWT effect as compared to the flurbiprofen group (rats with CIA): slightly better or better effects; IC50 (NUGC-4): 41.8 µM; IC50 (MM.1S): 45.7 µM |
| CC(C(=O)OCOC(=O)CCCN1C(=O)C=CC1=O)c1ccc(-c2ccccc2)c(F)c1 (stereo not shown) [Compound 57] | 43.8% | 43.4% | – | – | – |
| CC(C(=O)OCOC(=O)CCCCCN1C(=O)C=CC1=O)c1ccc(-c2ccccc2)c(F)c1 (stereo not shown) [Compound 53] | 69% | 75.2% | 37.04 ± 0.20 °C | 37.02 ± 0.30 °C | – |
| CC(C(=O)OCOC(=O)c1ccc(N(C)C)cc1O)c1ccc(-c2ccccc2)c(F)c1 (stereo not shown) [Compound 41] | 43% | 32.2% | 37.19 ± 0.35 °C | 37.30 ± 0.31 °C | – |
| C[C@H](C(=O)OCOC(=O)N1CCC(O)CC1)c1ccc(-c2ccccc2)c(F)c1 [Compound 31] | 45.4% | 31.9% | 37.12 ± 0.30 °C | 37.22 ± 0.30 °C | – |
| CC(C(=O)OCOC(=O)N1C[C@@H](C)O[C@@H](C)C1)c1ccc(-c2ccccc2)c(F)c1 (stereo partly shown) [Compound 3] | 45.3% | 28.1% | – | – | – |
| CC(=O)Oc1ccccc1C(=O)OCOC(=O)C(C)c1ccc(-c2ccccc2)c(F)c1 (stereo not shown) [Compound 36] | 45.3% | 28.1% | 37.38 ± 0.31 °C | 37.24 ± 0.16 °C | – |
| CC(C(=O)OCOC(=O)N[C@@H](Cc1ccc(O)cc1)C(=O)O)c1ccc(-c2ccccc2)c(F)c1 (stereo partly shown) [Compound 7] | 47.9% | 21.5% | – | – | – |
| CC(C)CN(CC(C)C)C(=O)OCOC(=O)C(C)c1ccc(-c2ccccc2)c(F)c1 (stereo not shown) [Compound 69] | 65.9% | 70.6% | 37.09 ± 0.18 °C | 37.13 ± 0.27 °C | – |
| COc1cc(COC(=O)C(C)c2ccc(-c3ccccc3)c(F)c2)cc(OC)c1 (stereo not shown) [Compound 47] | 49.3% | 33.9% | 37.17 ± 0.27 °C | 37.26 ± 0.22 °C | – |
| CCCCN(CCCC)C(=O)OCOC(=O)C(C)c1ccc(-c2ccccc2)c(F)c1 (stereo not shown) [Compound 65] | 43.1% | 43.8% | 37.10 ± 0.20 °C | 37.24 ± 0.23 °C | – |
| CC(=O)N1CCN(C(=O)OCOC(=O)C(C)c2ccc(-c3ccccc3)c(F)c2)CC1 (stereo not shown) [Compound 15] | – | – | 37.16 ± 0.16 °C | 37.27 ± 0.24 °C | – |
| CC(OC(=O)C(C)c1ccc(-c2ccccc2)c(F)c1)OC(=O)N1CCOCC1 (stereo not shown) [Compound 9] | – | – | 37.17 ± 0.23 °C | 37.10 ± 0.37 °C | – |
| CCCCCCN(C)C(=O)OCOC(=O)C(C)c1ccc(-c2ccccc2)c(F)c1 (stereo not shown) [Compound 67] | 48.6% | 57.3% | 37.17 ± 0.19 °C | 37.16 ± 0.20 °C | – |
| Flurbiprofen axetil [reference compound] | – | – | – | – | Toe Swelling Inhibition Rate at 6 h ([1]; 6 h): 35.53%**; Toe Swelling Inhibition Rate at 24 h ([1]; 24 h): 22.85%** |
| CC(C(=O)OCOC(=O)CCN1C(=O)CCC1=O)c1ccc(-c2ccccc2)c(F)c1 (stereo not shown) [Compound 55] | 36.7% | 41.4% | – | – | – |
| CCCN(CCC)C(=O)OCOC(=O)[C@@H](C)c1ccc(-c2ccccc2)c(F)c1 [Compound 29] | 45.8% | 29.6% | 37.12 ± 0.13 °C | 37.35 ± 0.23 °C | – |
